Test results as given in patent US10221171B2, “Oxathiazole thiazolium Hsp 70 inhibitors” (THE REGENTS OF THE UNIVERSITY OF CALIFORNIA, priority 2015, dated 2019).
Where two headings read alike, the source gives them in different places.

Key:
Type in all cases: cell-based
[1] = system: MDA-MB-231; experiment: MTT cell viability assay, MDA-MB-231; details: Homo sapiens
Description: (§1) Cells were then treated with compound at various concentrations in 0.2 mL media. After the 72-hour incubation period, cells were washed in PBS (3×100 μL), and 10 μL MTT reagent was added with 100 μL fresh media. Cells were then incubated for 4 hr in a humidified chamber at 37° C. with 5% CO2. Insoluble formazan crystals were solubilized by addition of 0.1 mL detergent solution (4 hr at room temp., dark). Resulting colored solutions were then quantified at an absorbance of 570 nm.

[2] = system: MCF-7; experiment: MTT cell viability assay, MCF-7; details: Homo sapiens, MTT, 72-hour incubation, read-out: IC50/μM MCF-7
Description: as §1

[3] = system: MEF (C57BL/6); experiment: MTT cell viability assay, MEF (C57BL/6); details: Mus musculus
Description: as §1

[4] = MTT, 72-hour incubation, read-out: IC50/μM MEF (C57BL/6)
[5] = MDA-MB-231, 72 h, 72-hour incubation
[6] = 72 h, read-out: IC50/μM MEF (C57BL/6), MTT, 72-hour incubation

Row | SMILES | IC50 ([1]; MDA-MB-231, 72-hour incubation) [µM] | IC50 ([2]; MCF7) [µM] | IC50 [3, 4] [µM] | IC50 [1, 5] [µM] | IC50 ([2]; MCF7, 72 h) [µM] | IC50 [3, 6] [µM]
1 | CCn1c(=O)/c(=C2\Sc3cc(Cl)ccc3N2C)s/c1=C\c1scc[n+]1[C@@H](C)c1ccccc1 [JG-335] | 0.11 ± 0.01 | 0.14 ± 0.02 | 1.4 ± 0.1 |  |  | 
2 | CCn1c(=O)/c(=C2\Sc3cc(F)ccc3N2C)s/c1=C\c1scc[n+]1[C@@H](C)c1ccccc1 [JG-336] | 0.21 ± 0.02 | 0.18 ± 0.02 | 2.2 ± 0.1 |  |  | 
3 | CCn1c(=O)/c(=C2\Sc3cc(Cl)ccc3N2C)s/c1=C\c1scc[n+]1Cc1c(Cl)cccc1Cl [JG-337] |  |  |  | 0.16 ± 0.01 | 0.16 ± 0.01 | 1.4 ± 0.1
4 | CCn1c(=O)/c(=C2\Sc3cc(F)ccc3N2C)s/c1=C\c1scc[n+]1Cc1c(Cl)cccc1Cl [JG-338] | 0.14 ± 0.01 | 0.17 ± 0.02 | 1 ± 0.03 |  |  | 
5 | CCn1c(=O)/c(=C2\Sc3cc(Cl)ccc3N2C)s/c1=C\c1scc[n+]1[C@H](C)c1ccccc1 [JG-339] | 0.19 ± 0.02 | 0.37 ± 0.04 | 1.5 ± 0.08 |  |  | 
6 | CCn1c(=O)/c(=C2\Sc3cc(F)ccc3N2C)s/c1=C\c1scc[n+]1[C@H](C)c1ccccc1 [JG-340] | 0.38 ± 0.03 | 0.24 ± 0.03 | 1.5 ± 0.05 |  |  | 
7 | C=CCn1c(=O)/c(=C2\Sc3cc(C)ccc3N2C)s/c1=C\c1scc[n+]1Cc1ccccc1 [JG-341] | 0.11 ± 0.01 | 0.15 ± 0.01 | 1.6 ± 0.1 |  |  | 
8 | CCc1ccc2c(c1)S/C(=c1/s/c(=C\c3scc[n+]3Cc3c(Cl)cccc3Cl)n(CC)c1=O)N2C [JG-342] | 0.1 ± 0.01 |  | 0.3 ± 0.1 |  | 0.093 ± 0.007 | 
9 | CCc1ccc2c(c1)S/C(=c1/s/c(=C\c3scc[n+]3Cc3c(C)cccc3C)n(CC)c1=O)N2C [JG-343] | 0.25 ± 0.01 | 0.22 ± 0.02 | 0.64 ± 0.01 |  |  | 
10 | CCc1ccc2c(c1)S/C(=c1/s/c(=C\c3scc[n+]3Cc3ccccc3SC(F)(F)F)n(CC)c1=O)N2C [JG-344] | 0.17 ± 0.01 | 0.087 ± 0.007 | 0.46 ± 0.03 |  |  | 
11 | CCc1ccc2c(c1)S/C(=c1/s/c(=C\c3scc[n+]3Cc3ccccc3OC)n(CC)c1=O)N2C [JG-346] | 0.073 ± 0.007 | 0.11 ± 0.01 | 0.71 ± 0.03 |  |  | 
12 | CCc1ccc2c(c1)S/C(=c1/s/c(=C\c3scc[n+]3Cc3cc(C)sc3C)n(CC)c1=O)N2C [JG-347] | 0.21 ± 0.01 | 0.095 ± 0.008 | 0.6 ± 0.01 |  |  | 
13 | CCn1c(=O)/c(=C2\Sc3cc(OC)ccc3N2C)s/c1=C\c1scc[n+]1Cc1c(Cl)cccc1Cl [JG-348] | 0.1 ± 0.01 | 0.1 ± 0.01 | 1.1 ± 0.1 |  |  | 
14 | CCn1c(=O)/c(=C2\Sc3cc(OC)ccc3N2C)s/c1=C\c1scc[n+]1Cc1c(C)cccc1C [JG-349] | 0.23 ± 0.01 | 0.12 ± 0.01 | 1.1 ± 0.1 |  |  | 
15 | CCn1c(=O)/c(=C2\Sc3cc(OC)ccc3N2C)s/c1=C\c1scc[n+]1Cc1ccccc1SC(F)(F)F [JG-350] | 0.1 ± 0.01 | 0.059 ± 0.007 | 1.2 ± 0.1 |  |  | 
16 | CCn1c(=O)/c(=C2\Sc3cc(OC)ccc3N2C)s/c1=C\c1scc[n+]1Cc1ccccc1C(=O)OC [JG-351] | 0.11 ± 0.01 | 0.14 ± 0.01 | 1.6 ± 0.1 |  |  | 
17 | CCn1c(=O)/c(=C2\Sc3cc(OC)ccc3N2C)s/c1=C\c1scc[n+]1Cc1ccccc1OC [JG-352] |  |  |  | 0.062 ± 0.006 | 0.076 ± 0.005 | 0.77 ± 0.03

Row | SMILES | IC50 ([1]; MDA-MB-231, 72-hour incubation) [µM] | IC50 ([2]; MCF7) [µM] | IC50 [3, 4] [µM] | IC50 [1, 5] [µM] | IC50 ([2]; MCF7, 72 h) [µM] | IC50 [3, 6] [µM]
18 | CCn1c(=O)/c(=C2\Sc3cc(OC)ccc3N2C)s/c1=C\c1scc[n+]1Cc1cc(C)sc1C [JG-353] | 0.15 ± 0.01 | 0.15 ± 0.01 | 1.1 ± 0.1 |  |  | 
19 | CCn1c(=O)/c(=C2\Sc3cc(SC)ccc3N2C)s/c1=C\c1scc[n+]1Cc1c(Cl)cccc1Cl [JG-354] | 0.096 ± 0.01 | 0.13 ± 0.01 | 1.1 ± 0.1 |  |  | 
20 | CCn1c(=O)/c(=C2\Sc3cc(SC)ccc3N2C)s/c1=C\c1scc[n+]1Cc1c(C)cccc1C [JG-355] | 0.21 ± 0.01 | 0.28 ± 0.02 | 1.5 ± 0.1 |  |  | 
21 | CCn1c(=O)/c(=C2\Sc3cc(SC)ccc3N2C)s/c1=C\c1scc[n+]1Cc1ccccc1C(=O)OC [JG-357] | 0.14 ± 0.01 | 0.25 ± 0.01 | 3.5 ± 0.2 |  |  | 
22 | CCn1c(=O)/c(=C2\Sc3cc(SC)ccc3N2C)s/c1=C\c1scc[n+]1Cc1ccccc1OC [JG-358] | 0.11 ± 0.01 | 0.22 ± 0.01 | 1.6 ± 0.1 |  |  | 
23 | CCn1c(=O)/c(=C2\Sc3cc(SC)ccc3N2C)s/c1=C\c1scc[n+]1Cc1cc(C)sc1C [JG-359] | 0.25 ± 0.01 | 0.21 ± 0.01 | 1.6 ± 0.1 |  |  | 
24 | CCn1c(=O)/c(=C2\Sc3cc(C#N)ccc3N2C)s/c1=C\c1scc[n+]1Cc1ccccc1 [JG-360] | 2.3 ± 0.1 | 1.3 ± 0.1 | 2.3 ± 0.1 |  |  | 
25 | CCn1c(=O)/c(=C2\Sc3ccc(C)cc3N2C)s/c1=C\c1scc[n+]1Cc1c(Cl)cccc1Cl [JG-361] |  |  |  | 0.054 ± 0.006 | 0.088 ± 0.008 | 0.55 ± 0.03
26 | CCn1c(=O)/c(=C2\Sc3ccc(C)cc3N2C)s/c1=C\c1scc[n+]1Cc1c(C)cccc1C [JG-362] | 0.23 ± 0.01 | 0.19 ± 0.02 | 2.3 ± 0.1 |  |  | 
27 | CCn1c(=O)/c(=C2\Sc3ccc(C)cc3N2C)s/c1=C\c1scc[n+]1Cc1ccccc1SC(F)(F)F [JG-363] | 0.084 ± 0.012 | 0.067 ± 0.005 | 2.1 ± 0.1 |  |  | 
28 | CCn1c(=O)/c(=C2\Sc3ccc(C)cc3N2C)s/c1=C\c1scc[n+]1Cc1ccccc1C(=O)OC [JG-364] | 0.11 ± 0.01 | 0.15 ± 0.01 | 2.3 ± 0.2 |  |  | 
29 | CCn1c(=O)/c(=C2\Sc3ccc(C)cc3N2C)s/c1=C\c1scc[n+]1Cc1ccccc1Cl [JG-365] | 0.16 ± 0.02 | 0.11 ± 0.01 | 0.42 ± 0.02 |  |  | 
30 | CCn1c(=O)/c(=C2\Sc3ccc(C)cc3N2C)s/c1=C\c1scc[n+]1Cc1ccccc1C [JG-366] | 0.22 ± 0.02 | 0.19 ± 0.01 | 0.99 ± 0.04 |  |  | 
31 | CCn1c(=O)/c(=C2\Sc3ccc(C)cc3N2C)s/c1=C\c1scc[n+]1Cc1ccccc1Br [JG-367] | 0.22 ± 0.02 | 0.12 ± 0.01 | 0.54 ± 0.02 |  |  | 
32 | CCn1c(=O)/c(=C2\Sc3ccc(C)cc3N2C)s/c1=C\c1scc[n+]1Cc1ccccc1OC(F)(F)F [JG-368] |  |  |  | 0.18 ± 0.01 | 0.089 ± 0.006 | 1.4 ± 0.1
33 | CCn1c(=O)/c(=C2\Sc3ccc(C)cc3N2C)s/c1=C\c1scc[n+]1Cc1ccsc1C(=O)OC [JG-369] | 0.12 ± 0.01 | 0.063 ± 0.004 | 0.44 ± 0.02 |  |  | 
